According to patent publication US9272047B2, “Use of biological surfactant as anti-inflammatory agent and tissue preservative solution” (Shaperon Inc., priority 2007, dated 2016):

Assays:
NF-κB = assay: Inhibition of E. coli LPS-stimulated NF-κB activation (CD25 expression) in 3FP CHO cells; format: cell-based, Chinese hamster; details: live 7AAD(−) LPS-stimulated 3FP cells
Experimental: In order to evaluate the inhibition efficacy for the activation of E. coli LPS-stimulated NF-κB in a CHO cell, % expression of CD 25 in the CHO cell was evaluated as the following method, and FACS analysis after staining with 7-AAD was carried out to evaluate the cytotoxicity. Bile salts were classified into 3 groups based on their solubility in different solvents, as follows:
The CHO cells expressing CD25 under the regulation of a nuclear factor (NF-κB) promoter, shown FIG. 2A, were used for this experiment. Toll-like receptor 2 (TLR2) and CD14 gene-transformed CHO cells (hereinafter referred to as “3FP cells”) were also used.
The next day, the cultured cells were treated with bile acid derivatives and LPS, and were incubated in a CO2 incubator for 15 hr at 37° C.
After stimulating the above incubated cells for 15 hr, the culture solution was centrifuged (1200 rpm, 5 min, 4° C.) to remove the culture supernatant. The precipitate was washed twice with 200 μl of FACS buffer (1×PBS containing 1% BSA and 1 mM EDTA). 20 μl of blocking solution (PBS containing 1:10 of normal mouse serum and 1:3 of anti-human CD14/CD32 (BD, 2.4G2) was added to each well and reacted on an ice for 30 min. A mixture solution of anti-human CD25-PE (1:16) and anti-human CD14-FITC (1:32) was added to the well and then reacted on the ice for 30 min. The reaction mixture was washed twice with 200 μl of FACS buffer, and then 200 μl of 7-AAD (1:20) was added to the reaction mixture. After the reaction mixture was reacted on the ice for 10 min, CD25 expression efficacy and cytotoxicity were analyzed by using a flow cytometer.
In order to analyze living cells, 7-AAD(−) cells were selected and an activation of nuclear transcription factor was confirmed by the increase of CD25 expression.

dendritic cells [1] = assay: Inhibition of E. coli LPS-induced activation of dendritic cells (CD40, CD80, CD86, I-Ab expression); format: cell-based, mouse; details: 100 ng/ml E. coli LPS; CD11c(+)/7AAD(−) dendritic cells
Experimental: In order to assay the effect of sodium glycocholate on the activation procedure of antigen presenting cells, which is induced by E. coli LPS, cells were separated from the bone marrow of recombination activating gene 2 (Rag2) deficient mouse. The separated cells were plated at 2×10^5 cells/well in a 96-well plate and then treated with 1.5 ng/ml of granulocyt-macrophage colony-stimulating factor (GM-CSF) and 0.75 ng/ml of interleukin-4 followed by the differentiation of the cells into dentritic cells through 6-day incubation.
The dendritic cells were well mixed with sodium glycocholate and LPS. The mixtures were stimulated for 18 hours at 37° C., and stained with anti-CD40-FITC, anti-CD80-FITC, anti-I-Ab-PE, anti-CD86-PE, 7AAD and anti-CD11c-APC, then the cells were assayed via a flow cytometer. Each group was treated and assayed at least twice, and the results were statistically analyzed through t-test. The results were p<0.05 compared with the experimental groups treated by only LPS.
As shown FIGS. 9A-9B to 11A-11B, in order to assay only living dedritic cells, CD11c(+)/7AAD(−) cells were selected and then the expressions of dendritic cell costimulatory molecules and I-Ab were assayed.

macrophages = assay: Inhibition of LPS-induced nitric oxide generation, macrophages (Griess); format: cell-based, mouse; details: macrophages stimulated by LPS, 18 hours
Experimental: (§1) Then, the resulting dendritic cell mixtures were plated, by […] each, in a 96-well plate. Griss reagents were added to each well, and the 96-well plate was covered with foils and kept reacting for 15 min at room temperature. Absorbance at 540 nm was measured using an ELISA reader. Macrophages separated from abdomen were also treated with sodium glycocholate, sodium taurochenodeoxycholate and sodium taurodeoxycholate, respectively, and then stimulated with LPS for 18 hours. Thereafter, the same experiments as the dentritic cells were performed to the macrophages.

dendritic cells [2] = assay: Inhibition of LPS-induced nitric oxide generation, dendritic cells (Griess); format: cell-based, mouse; details: dendritic cells stimulated by LPS, 18 hours
Experimental: as §1

## C[C@H](CCC(=O)O)[C@H]1CC[C@H]2[C@@H]3C(=O)C[C@@H]4CC(=O)CC[C@]4(C)[C@H]3CC(=O)[C@]12C [dehydrocholic acid]
NF-κB
  inhibition effect for LPS-stimulated CD25 expression (NF-κB activation): showed inhibition effects

## sodium deoxycholate
NF-κB
  inhibition effect for LPS-stimulated CD25 expression (NF-κB activation): showed an inhibition effect

## C[C@H](CCC(=O)NCCS(=O)(=O)[O-])[C@H]1CC[C@H]2[C@@H]3CC[C@@H]4C[C@H](O)CC[C@]4(C)[C@H]3C[C@H](O)[C@]12C.[Na+] [sodium taurodeoxycholate hydrate]
Dendritic cells [1]
  increased expression of CD40, CD80, CD86 and I-Ab: inhibited depending on the concentration
macrophages
  generation of NO: inhibited
NF-κB
  inhibition effect for LPS-stimulated CD25 expression (NF-κB activation): showed an inhibition effect
Dendritic cells [2]
  generation of NO: inhibited

## C[C@H](CCC(=O)O)[C@H]1CC[C@H]2[C@@H]3[C@H](O)C[C@@H]4C[C@H](O)CC[C@]4(C)[C@H]3CC[C@]12C [chenodeoxycholic acid]
NF-κB
  inhibition effect for LPS-stimulated CD25 expression (NF-κB activation): showed inhibition effects

## C[C@H](CCC(=O)NCCS(=O)(=O)O)[C@H]1CC[C@H]2C3[C@H](O)C[C@@H]4C[C@H](O)CC[C@]4(C)[C@H]3CC[C@]12C (stereo partly drawn) [sodium taurochenodeoxycholate]
Dendritic cells [1]
  increased expression of CD40, CD80, CD86 and I-Ab: inhibited depending on the concentration
macrophages
  generation of NO: inhibited
NF-κB
  inhibition effect for LPS-stimulated CD25 expression (NF-κB activation): showed an inhibition effect
Dendritic cells [2]
  generation of NO: inhibited

## C[C@H](CCC(=O)NCCS(=O)(=O)O)[C@H]1CC[C@H]2[C@@H]3[C@H](O)C[C@@H]4C[C@H](O)CC[C@]4(C)[C@H]3C[C@H](O)[C@]12C [sodium taurocholate hydrate]
NF-κB
  inhibition effect for LPS-stimulated CD25 expression (NF-κB activation): showed an inhibition effect

## C[C@H](CCC(=O)NCC(=O)[O-])[C@H]1CC[C@H]2[C@@H]3[C@H](O)C[C@@H]4C[C@H](O)CC[C@]4(C)[C@H]3CC[C@]12C.[Na+] [sodium glycochenodeoxycholate]
NF-κB
  inhibition effect for LPS-stimulated CD25 expression (NF-κB activation): showed an inhibition effect

## C[C@H](CCC(=O)NCC(=O)O)[C@H]1CC[C@H]2[C@@H]3[C@H](O)C[C@@H]4C[C@H](O)CC[C@]4(C)[C@H]3C[C@H](O)[C@]12C [glycocholic acid hydrate]
NF-κB
  inhibition effect for LPS-stimulated CD25 expression (NF-κB activation): showed inhibition effects

## C[C@H](CCC(=O)O)[C@H]1CC[C@H]2[C@@H]3[C@H](O)C[C@@H]4C[C@H](O)CC[C@]4(C)[C@H]3C[C@H](O)[C@]12C [cholic acid]
NF-κB
  inhibition effect for LPS-stimulated CD25 expression (NF-κB activation): showed inhibition effects
